Test results: article PMC8864858, “Synthesis, in vitro biological evaluation and molecular modelling of new 2-chloro-3-hydrazinopyrazine derivatives as potent acetylcholinesterase inhibitors on PC12 cells” (BMC Chemistry, 2022)
“Also recorded” adds a separate entry of the source.

How the values were obtained:
[1] = DPPH radical scavenging assay; type: physicochemical; conditions: for Scavenging activity on DPPH radical (in words): Fig. 3B
Description: (§1) The radical scavenging activity of prepared compounds was assessed through using ABTS decolorization assay and method reported by Re et al. with few modifications. In this regard, ABTS solution was diluted with 80% ethanol to the absorbance of 0.70 ± 0.05 at 734 nm. After adding 100 µL of the obtained compounds in ethanol (1–30 µM) or ascorbic acid, absorbance was measured at exactly 20 min in the same wavelength. DPPH assay was based on the method provided by Ghafouri et al. with some modifications. Additionally, the quenching of free radicals by novel synthesized compounds was evaluated spectrophotometrically (UV–Vis Pharmacia Biotech Ultrospec 3000) at 517 nm against the absorbance of DPPH radical. Further, ferric reducing/antioxidant power (FRAP) assay was performed according to the previous study with some modifications, the principle of which was based on reducing a ferric 2,4,6-tris(2-pyridyl)-1,3,5-triazine (Fe^3+-TPTZ) to ferrous in the presence of prepared compounds. Finally, a standard curve was drawn by considering the different concentrations (10–1000 µM) of ferrous sulfate.

[2] = ABTS radical decolorization assay; type: physicochemical; conditions: final concentration 1–30 μM, absorbance at 734 nm
Description: as §1

[3] = biological target: T1, AChE from Electrophorus electricus (Electrophorus electricus, UniProt O42275); experiment: biochemical; conditions: Ellman method, compounds 0.1–10 µM, triplicate; read-out: IC50 against AChE activity
T1 construct: purchased Sigma
Description: The AChE inhibitory activity of all synthesized novel derivatives and their controls was evaluated through using the Ellman method. […] Each concentration was assayed in triplicate. […] Finally, absorbance was recorded by using a Pharmacia Biotech Ultrospec 3000 UV–Vis spectrophotometer at 410 nm.

[4] = Ferric reducing/antioxidant power (FRAP) assay; type: physicochemical; conditions: for Antioxidant effect in FRAP (in words): Fig. 3C
Description: as §1

Tau-p = experiment: Western blot analysis of Tau-p in PC12 cells; type: cell-based, Rattus norvegicus; conditions: PC12 cells in presence of Ab1-42; CHP4 at 20 and 30 µM, 24 h
Description: (§2) To this end, the cells were seeded in the 6-well plate and treated with 20 and 30 µM CHP4 for 24 h. Additionally, they were washed with cold PBS, followed by lysing with lysis buffer (20 mM Tris (pH 7.5), 150 mM NaCl, 1 mM EDTA, 1% NP-40, 0.5% sodium deoxycholate, 0.1% SDS, 50 mM Tris, protease and phosphatase inhibitor cocktails) for 30 min on ice. After centrifuging lysates at 4 °C in 12,000g for 10 min, the supernatants were transferred to new tubes. Protein concentration was detected through using the Bradford assay. Further, the denatured proteins was resolved on SDS-PAGE, transferred onto PVDF membranes (Millipore, Billerica, MA, USA), and blocked with 5% nonfat dry milk in the PBS containing 0.1% Tween-20 (PBST). Then, the membranes were incubated with the rabbit primary antibodies against Tau-p, HSP70, and β-actin (as a control group) overnight at 4 °C, and exposed with the horseradish peroxidase (HRP)-conjugated second antibody for 2 h at room temperature. Finally, the density of relative protein bands was determined through densitometric scanning the blots by using Image-J program.

PC12 cells [5] = experiment: Cell viability of PC12 cells treated with CHP4 (MTT); type: cell-based; conditions: concentrations of 0–100 μM; 24 and 48 h
Description: Rattus norvegicus pheochromocytoma PC12 cells (Pastor Institute, Iran) were cultured in the Dulbecco's Modified Eagle's Medium (DMEM) containing 10% fetal bovine serum (FBS) and 1% penicillin/streptomycin (Gibco) at 37 °C with 5% CO2. In order to examine the role of CHP4, PC12 cells were treated with the different concentrations (10–100 µM) of CHP4 for 24 and 48 h. […] Furthermore, […] 10 µL of 0.5 mg/mL MTT stock solution were added to each well containing about 1 mL of medium and the mixture was incubated for 4 h. Then, the plates were agitated on a plate shaker for 30 min and optical density was read at 570 nm by using an ELISA reader (Biotech).

HSP70 = experiment: Western blot analysis of HSP70 in PC12 cells; type: cell-based, Rattus norvegicus; conditions: PC12 cells in presence of Ab1-42; CHP4 30 μM (b1)
Description: as §2

PC12 cells [6] = experiment: Ab1-42-induced cytotoxicity in PC12 cells, neuroprotection (MTT); type: cell-based; conditions: 100 µM Ab1-42, 24 h
Description: Rattus norvegicus pheochromocytoma PC12 cells (Pastor Institute, Iran) were cultured in the Dulbecco's Modified Eagle's Medium (DMEM) containing 10% fetal bovine serum (FBS) and 1% penicillin/streptomycin (Gibco) at 37 °C with 5% CO2. […] Furthermore, 50 µL of DMSO and 10 µL of 0.5 mg/mL MTT stock solution were added to each well containing about 1 mL of medium and the mixture was incubated for 4 h. Then, the plates were agitated on a plate shaker for 30 min and optical density was read at 570 nm by using an ELISA reader (Biotech).

T1 sequence (O42275 24-633): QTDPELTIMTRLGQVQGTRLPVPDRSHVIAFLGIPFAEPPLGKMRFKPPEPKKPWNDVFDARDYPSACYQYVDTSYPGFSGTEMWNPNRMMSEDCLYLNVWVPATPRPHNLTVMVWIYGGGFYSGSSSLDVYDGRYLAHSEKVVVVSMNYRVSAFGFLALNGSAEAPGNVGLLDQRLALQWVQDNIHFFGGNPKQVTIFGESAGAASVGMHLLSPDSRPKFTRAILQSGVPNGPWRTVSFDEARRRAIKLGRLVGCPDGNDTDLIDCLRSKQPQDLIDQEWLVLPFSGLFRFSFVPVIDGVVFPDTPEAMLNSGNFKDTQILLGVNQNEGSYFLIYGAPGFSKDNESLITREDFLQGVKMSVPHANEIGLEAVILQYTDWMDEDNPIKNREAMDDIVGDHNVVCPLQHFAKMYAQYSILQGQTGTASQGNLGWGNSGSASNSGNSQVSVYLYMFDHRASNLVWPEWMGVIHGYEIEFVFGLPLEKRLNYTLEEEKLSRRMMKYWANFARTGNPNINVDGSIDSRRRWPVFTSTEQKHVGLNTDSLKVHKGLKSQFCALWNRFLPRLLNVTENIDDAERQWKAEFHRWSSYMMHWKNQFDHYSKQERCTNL

Cc1ccc2occ(/C=N/Nc3nccnc3Cl)c(=O)c2c1 [CHP2, (E)-3-((2-(3-chloropyrazin-2-yl)hydrazineylidene)methyl)-6-methyl-4H-chromen-4-one]
IC50 ([1]; 517 nm): 26 µM
Scavenging activity on DPPH radical (in words) [1]: highest scavenging activity

COc1ccc(/C=N/Nc2nccnc2Cl)cc1 [CHP1, (E)-2-chloro-3-(2-(4-methoxybenzylidene) hydrazinyl) pyrazine]
ABTS radical scavenging activity (inhibition) [2]: 48%
Scavenging activity on DPPH radical (in words) [1]: moderate

Clc1ccc(/C=N/Nc2nccnc2Cl)cc1 [CHP5, (E)-2-chloro-3-(2-(4-chlorobenzylidene)hydrazineyl)pyrazine]
IC50 [3]: 4.2 µM
Scavenging activity on DPPH radical (in words) [1]: low
Antioxidant effect in FRAP (in words) [4]: least

Oc1ccccc1/C=N/Nc1nccnc1Cl [CHP4, (E)-2-((2-(3-chloropyrazin-2-yl)hydrazineylidene)methyl)phenol]
IC50 [3]: 3.76 µM
Tau-p expression (western blot) (Tau-p): clearly decreased
Toxicity in PC12 cells (PC12 cells [5]): non-toxic
Scavenging activity on DPPH radical (in words) [1]: highest scavenging activity
Antioxidant effect in FRAP (in words) [4]: highest
Ability for Fe3+ reduction (FRAP) ([4]; printed as 3.016 per 1 mM, concentration of Fe2+): 3.016
HSP70 expression (western blot) (HSP70): significantly increased; also recorded: increased HSP70 expression
Effect on Ab1-42-induced cell death (PC12 cells [6]): significantly reduced the Ab1-42-induced cell death in a dose-dependent manner

Oc1cccc(/C=N/Nc2nccnc2Cl)c1 [CHP3, (E)-3-((2-(3-chloropyrazin-2-yl)hydrazineylidene)methyl)phenol]
Scavenging activity on DPPH radical (in words) [1]: highest scavenging activity
